Experimental data taken from ChEMBL document CHEMBL1201862, “PubChem BioAssay data set” (2004).
The source made the active and inactive calls. Rule as the data show it, for most assays here: actives have a measured IC50 and inactives only a lower limit.

Assays:
Type in all cases: functional
[1] = target: Apoptotic protease-activating factor 1 (Homo sapiens, UniProt O14727)
[2] = target: T1, Corticotropin-releasing factor receptor 2/Corticotropin-releasing factor-binding protein (Homo sapiens, UniProt P24387+Q13324); test: Dose Response confirmation of uHTS hits for small molecule antagonists of the CRF-binding protein and CRF-R2 receptor complex.; conditions: read-out: IC50_Mean
T1 sequence (Q13324 whole entry): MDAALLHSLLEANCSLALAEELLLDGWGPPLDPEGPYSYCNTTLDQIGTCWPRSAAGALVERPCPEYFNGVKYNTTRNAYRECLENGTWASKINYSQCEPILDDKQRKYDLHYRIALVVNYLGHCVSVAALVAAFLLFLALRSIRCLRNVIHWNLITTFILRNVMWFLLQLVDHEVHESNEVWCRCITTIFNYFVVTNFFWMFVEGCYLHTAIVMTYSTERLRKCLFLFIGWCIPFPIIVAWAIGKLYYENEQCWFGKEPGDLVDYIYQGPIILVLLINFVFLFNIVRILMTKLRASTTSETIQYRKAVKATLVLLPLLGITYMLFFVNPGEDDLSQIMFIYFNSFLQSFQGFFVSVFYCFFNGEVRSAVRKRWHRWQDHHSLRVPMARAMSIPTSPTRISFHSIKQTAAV
T1 sequence (P24387 whole entry): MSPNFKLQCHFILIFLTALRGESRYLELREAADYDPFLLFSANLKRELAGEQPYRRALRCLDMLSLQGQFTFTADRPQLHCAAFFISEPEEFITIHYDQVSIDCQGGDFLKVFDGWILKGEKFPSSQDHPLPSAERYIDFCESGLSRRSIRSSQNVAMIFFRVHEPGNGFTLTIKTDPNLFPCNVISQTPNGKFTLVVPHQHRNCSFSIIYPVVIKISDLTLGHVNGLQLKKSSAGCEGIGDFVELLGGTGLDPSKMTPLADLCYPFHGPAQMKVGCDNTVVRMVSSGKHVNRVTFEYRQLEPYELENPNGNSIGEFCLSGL

[3] = target: T1, Corticotropin-releasing factor receptor 2/Corticotropin-releasing factor-binding protein; test: activators of CRF receptor 2 with binding protein – uHTS hits, confirmation (AID 602473); conditions: read-out: EC50_Mean
Phospholipase A2 = Phospholipase A2 (Homo sapiens, UniProt P04054);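 also: confirmatory dose-response counterscreen on phospholipase A2, testing hits that came from an ultra-high-throughput screen for ATG4B inhibitors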
Leucine aminopeptidase = target: T2, Leucine aminopeptidase (Plasmodium falciparum 3D7, UniProt Q8IL11); test: P. falciparum M17LAP inhibitors, primary screen, biochemical, fluorogenic H-Leu-NHMec substrate, 1536-well (AID 1619)
T2 sequence (Q8IL11 whole entry): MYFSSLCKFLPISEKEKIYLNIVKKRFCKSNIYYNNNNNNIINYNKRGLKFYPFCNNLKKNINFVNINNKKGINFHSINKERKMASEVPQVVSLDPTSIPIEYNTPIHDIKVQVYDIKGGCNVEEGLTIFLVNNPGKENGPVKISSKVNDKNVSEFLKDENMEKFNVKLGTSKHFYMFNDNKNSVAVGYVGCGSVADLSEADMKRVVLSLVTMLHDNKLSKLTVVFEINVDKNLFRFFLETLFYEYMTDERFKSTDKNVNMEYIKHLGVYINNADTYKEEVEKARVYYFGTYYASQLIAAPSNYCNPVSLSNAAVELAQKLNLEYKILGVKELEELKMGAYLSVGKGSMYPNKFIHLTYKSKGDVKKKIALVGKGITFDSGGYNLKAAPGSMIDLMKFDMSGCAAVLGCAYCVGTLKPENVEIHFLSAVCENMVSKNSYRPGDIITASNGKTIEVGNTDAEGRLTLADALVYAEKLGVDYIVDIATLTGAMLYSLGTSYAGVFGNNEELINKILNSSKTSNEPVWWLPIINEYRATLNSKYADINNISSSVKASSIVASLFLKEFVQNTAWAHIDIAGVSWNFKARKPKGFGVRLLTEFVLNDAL

Cysteine protease ATG4B = Cysteine protease ATG4B (Homo sapiens, UniProt Q9Y4P1);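 also: Fluorescence-based dose-response confirmation assay measuring inhibition of ATG4B activity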
Caspase-3 = target: T3, Caspase-3 (Homo sapiens, UniProt P42574); test: SAR Analysis of small molecule inhibitors of Sentrin-specific proteases (SENPs) using a Caspase-3 Selectivity assay. [Related pubchem assays (depositor defined):AID2540, AID2599, AID434973, AID489001]
T3 sequence (P42574 whole entry): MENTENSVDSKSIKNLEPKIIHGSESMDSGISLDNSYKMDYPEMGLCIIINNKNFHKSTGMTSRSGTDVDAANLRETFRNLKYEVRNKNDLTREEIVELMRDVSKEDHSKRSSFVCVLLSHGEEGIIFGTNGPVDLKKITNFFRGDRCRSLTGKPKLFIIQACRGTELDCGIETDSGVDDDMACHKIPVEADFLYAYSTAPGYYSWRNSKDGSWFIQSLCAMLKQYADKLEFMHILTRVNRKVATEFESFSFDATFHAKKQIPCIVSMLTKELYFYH

[4] = target: T4, Sentrin-specific protease 7 (Homo sapiens, UniProt Q9BQF6); test: inhibition of human SENP7 cleavage activity – biochemical, luminescence, SAR follow-up (AID 504497)
T4 sequence (Q9BQF6 whole entry): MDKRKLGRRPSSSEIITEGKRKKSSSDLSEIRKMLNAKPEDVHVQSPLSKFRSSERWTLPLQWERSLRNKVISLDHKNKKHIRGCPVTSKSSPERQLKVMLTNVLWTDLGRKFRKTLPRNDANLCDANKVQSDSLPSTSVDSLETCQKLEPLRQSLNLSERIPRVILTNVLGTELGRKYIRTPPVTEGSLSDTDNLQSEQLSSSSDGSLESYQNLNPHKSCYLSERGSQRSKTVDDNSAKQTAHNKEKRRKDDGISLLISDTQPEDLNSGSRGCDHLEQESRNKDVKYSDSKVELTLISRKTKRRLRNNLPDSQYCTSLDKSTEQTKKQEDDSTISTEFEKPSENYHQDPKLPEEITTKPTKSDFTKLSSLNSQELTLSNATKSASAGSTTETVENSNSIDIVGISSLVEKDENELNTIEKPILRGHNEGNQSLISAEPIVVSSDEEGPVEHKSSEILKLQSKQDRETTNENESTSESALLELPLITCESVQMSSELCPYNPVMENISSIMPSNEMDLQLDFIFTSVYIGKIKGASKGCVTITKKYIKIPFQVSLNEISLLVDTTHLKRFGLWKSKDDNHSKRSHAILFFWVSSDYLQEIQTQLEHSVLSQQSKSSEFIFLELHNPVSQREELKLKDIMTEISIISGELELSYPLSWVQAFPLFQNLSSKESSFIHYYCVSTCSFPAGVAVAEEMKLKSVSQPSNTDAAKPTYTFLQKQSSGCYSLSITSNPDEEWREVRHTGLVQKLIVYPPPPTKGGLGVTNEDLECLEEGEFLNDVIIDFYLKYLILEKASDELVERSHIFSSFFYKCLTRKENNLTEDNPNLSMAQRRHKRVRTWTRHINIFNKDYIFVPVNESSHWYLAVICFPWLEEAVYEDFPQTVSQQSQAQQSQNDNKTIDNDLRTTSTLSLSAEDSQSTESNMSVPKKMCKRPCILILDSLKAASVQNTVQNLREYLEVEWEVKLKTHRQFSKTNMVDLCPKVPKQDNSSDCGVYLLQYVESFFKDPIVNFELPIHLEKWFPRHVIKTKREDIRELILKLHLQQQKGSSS

[5] = target: T5, Sentrin-specific protease 8 (Homo sapiens, UniProt Q96LD8); test: inhibition of human SENP8 cleavage activity – biochemical, luminescence, SAR follow-up (AID 504501)
T5 sequence (Q96LD8 whole entry): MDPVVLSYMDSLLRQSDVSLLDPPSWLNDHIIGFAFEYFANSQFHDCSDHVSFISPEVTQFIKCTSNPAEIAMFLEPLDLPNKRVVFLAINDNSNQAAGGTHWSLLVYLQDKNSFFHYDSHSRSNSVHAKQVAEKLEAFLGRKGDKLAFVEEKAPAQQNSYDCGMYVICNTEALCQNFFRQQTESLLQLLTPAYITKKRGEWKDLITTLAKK

[6] = target: T6, Sentrin-specific protease 6 (Homo sapiens, UniProt Q9GZR1); test: SAR Analysis of small molecule inhibitors of Sentrin-specific protease 6 (SENP6) using a Luminescent assay. [Related pubchem assays (depositor defined):AID2582, AID2599]
T6 sequence (Q9GZR1 whole entry): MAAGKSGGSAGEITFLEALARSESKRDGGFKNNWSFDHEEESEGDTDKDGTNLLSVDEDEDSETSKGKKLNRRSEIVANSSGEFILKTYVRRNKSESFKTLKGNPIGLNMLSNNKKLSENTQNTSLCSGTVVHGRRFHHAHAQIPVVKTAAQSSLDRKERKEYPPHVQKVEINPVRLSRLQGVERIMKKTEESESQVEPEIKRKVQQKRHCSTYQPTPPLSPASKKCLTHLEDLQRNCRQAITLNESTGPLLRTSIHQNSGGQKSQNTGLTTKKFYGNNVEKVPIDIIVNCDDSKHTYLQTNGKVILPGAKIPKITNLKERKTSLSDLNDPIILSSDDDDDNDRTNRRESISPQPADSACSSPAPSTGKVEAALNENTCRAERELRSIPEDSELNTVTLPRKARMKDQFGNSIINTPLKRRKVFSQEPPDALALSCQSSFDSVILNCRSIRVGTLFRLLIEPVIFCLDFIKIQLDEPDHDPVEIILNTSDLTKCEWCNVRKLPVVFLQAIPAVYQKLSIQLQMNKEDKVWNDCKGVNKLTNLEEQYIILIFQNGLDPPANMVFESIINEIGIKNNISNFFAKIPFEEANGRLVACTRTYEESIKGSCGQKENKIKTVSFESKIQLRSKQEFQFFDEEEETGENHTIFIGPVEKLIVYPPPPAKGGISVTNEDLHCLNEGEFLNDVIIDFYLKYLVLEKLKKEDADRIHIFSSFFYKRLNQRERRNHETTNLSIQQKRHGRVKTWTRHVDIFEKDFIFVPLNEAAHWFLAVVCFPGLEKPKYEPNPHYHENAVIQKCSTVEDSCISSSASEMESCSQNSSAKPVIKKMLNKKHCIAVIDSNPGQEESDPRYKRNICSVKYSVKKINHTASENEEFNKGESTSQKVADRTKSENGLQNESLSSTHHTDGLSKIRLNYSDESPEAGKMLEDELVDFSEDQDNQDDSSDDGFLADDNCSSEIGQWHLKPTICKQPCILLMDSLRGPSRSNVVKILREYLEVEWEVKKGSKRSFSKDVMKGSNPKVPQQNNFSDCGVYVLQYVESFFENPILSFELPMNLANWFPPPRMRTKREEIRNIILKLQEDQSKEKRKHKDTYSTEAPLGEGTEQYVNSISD

Cysteine protease ATG4B, sequence (Q9Y4P1 whole entry): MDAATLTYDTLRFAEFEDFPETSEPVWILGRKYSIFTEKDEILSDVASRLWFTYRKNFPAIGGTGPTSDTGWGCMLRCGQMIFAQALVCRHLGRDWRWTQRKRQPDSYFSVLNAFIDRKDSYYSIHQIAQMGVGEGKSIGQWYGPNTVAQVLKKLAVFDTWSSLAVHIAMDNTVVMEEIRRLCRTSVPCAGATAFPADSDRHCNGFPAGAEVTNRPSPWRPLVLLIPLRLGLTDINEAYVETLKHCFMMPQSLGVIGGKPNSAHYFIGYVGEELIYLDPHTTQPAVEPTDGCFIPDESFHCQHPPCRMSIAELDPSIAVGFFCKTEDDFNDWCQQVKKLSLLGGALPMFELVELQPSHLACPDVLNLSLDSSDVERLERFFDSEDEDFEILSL
Phospholipase A2, sequence (P04054 whole entry): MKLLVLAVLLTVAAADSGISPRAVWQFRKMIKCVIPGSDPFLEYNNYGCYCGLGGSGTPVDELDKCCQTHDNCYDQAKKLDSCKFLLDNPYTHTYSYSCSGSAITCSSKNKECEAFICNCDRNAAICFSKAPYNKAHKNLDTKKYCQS
Apoptotic protease-activating factor 1, sequence (O14727 whole entry): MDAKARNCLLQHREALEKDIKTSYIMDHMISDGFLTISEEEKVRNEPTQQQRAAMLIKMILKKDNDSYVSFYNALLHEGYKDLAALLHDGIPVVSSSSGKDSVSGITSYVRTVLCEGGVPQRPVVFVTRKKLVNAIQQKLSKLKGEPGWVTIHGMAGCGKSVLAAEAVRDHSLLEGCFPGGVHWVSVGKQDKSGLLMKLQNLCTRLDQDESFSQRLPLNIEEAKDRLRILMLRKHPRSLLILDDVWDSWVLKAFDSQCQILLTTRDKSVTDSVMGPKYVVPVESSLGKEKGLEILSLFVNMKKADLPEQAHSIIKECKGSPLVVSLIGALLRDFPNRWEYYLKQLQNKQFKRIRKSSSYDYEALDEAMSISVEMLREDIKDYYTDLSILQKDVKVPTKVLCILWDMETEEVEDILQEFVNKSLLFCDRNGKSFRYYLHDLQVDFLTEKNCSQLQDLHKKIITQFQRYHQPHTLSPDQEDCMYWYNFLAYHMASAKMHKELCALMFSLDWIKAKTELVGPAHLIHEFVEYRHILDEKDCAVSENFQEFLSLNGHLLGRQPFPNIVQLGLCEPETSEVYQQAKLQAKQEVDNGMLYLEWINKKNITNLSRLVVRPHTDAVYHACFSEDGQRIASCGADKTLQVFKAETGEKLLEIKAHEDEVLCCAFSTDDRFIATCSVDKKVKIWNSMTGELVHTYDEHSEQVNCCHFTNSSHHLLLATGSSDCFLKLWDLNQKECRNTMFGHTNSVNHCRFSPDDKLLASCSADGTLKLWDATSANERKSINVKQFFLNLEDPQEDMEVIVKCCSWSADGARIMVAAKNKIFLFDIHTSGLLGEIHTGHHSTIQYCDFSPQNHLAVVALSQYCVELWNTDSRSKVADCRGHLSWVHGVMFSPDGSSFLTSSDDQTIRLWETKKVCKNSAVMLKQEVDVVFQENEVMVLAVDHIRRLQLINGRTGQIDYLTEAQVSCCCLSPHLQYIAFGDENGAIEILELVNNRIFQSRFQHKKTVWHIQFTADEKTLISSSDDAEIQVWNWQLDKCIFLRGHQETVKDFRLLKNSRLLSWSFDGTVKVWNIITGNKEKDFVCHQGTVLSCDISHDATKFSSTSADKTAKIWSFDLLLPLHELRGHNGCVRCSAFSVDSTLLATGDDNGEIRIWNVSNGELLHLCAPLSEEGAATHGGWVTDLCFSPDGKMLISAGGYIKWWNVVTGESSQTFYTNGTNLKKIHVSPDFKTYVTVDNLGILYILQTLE

## CCCCCn1c(=O)c(C(=O)Nc2c(C)n(C)n(-c3ccccc3)c2=O)c(O)c2ccccc21
[1]
  IC50: > 100 µM (inactive)
[2]
  IC50: > 47.1 µM (inactive)
[3]
  EC50: > 53 µM (inactive)

## CCOc1cc(/C=C2/SC(=O)N(CC(=O)N3CCc4ccccc4C3)C2=O)ccc1OCC(=O)O
Phospholipase A2
  IC50: 11 µM (active)
Leucine aminopeptidase
  IC50: 10.6 µM (active)
Cysteine protease ATG4B
  IC50: 15 µM (active)

## Oc1ccc(Br)cc1/C=N/Nc1cc(N2CCCC2)nc(N2CCCC2)n1
Caspase-3
  IC50: > 99 µM (inactive)
[4]
  IC50: > 99 µM (inactive)
[5]
  IC50: > 99 µM (inactive)
[6]
  IC50: > 99 µM (inactive)
